PubChem BioAssay (NCI)
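All cell lines were grown in 96-well plates and treated with compound for 48 hours. At the TGI there is no net growth.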

Experiments:
Experiment in all cases: NCI-60 cell line screen, 48 h
DMS 114 small cell lung = tested on: DMS 114 small cell lung
CAKI-1 renal = tested on: CAKI-1 renal
K-562 leukemia = tested on: K-562 leukemia
SNB-75 CNS = tested on: SNB-75 CNS
UACC-257 melanoma = tested on: UACC-257 melanoma
OVCAR-5 ovarian = tested on: OVCAR-5 ovarian
OVCAR-8 ovarian = tested on: OVCAR-8 ovarian
DLD-1 colon = tested on: DLD-1 colon
NCI-H460 lung = tested on: NCI-H460 lung
OVCAR-3 ovarian = tested on: OVCAR-3 ovarian
KM20L2 colon = tested on: KM20L2 colon
IGROV1 ovarian = tested on: IGROV1 ovarian
SW-620 colon = tested on: SW-620 colon
M19-MEL melanoma = tested on: M19-MEL melanoma
SF-268 CNS = tested on: SF-268 CNS
OVCAR-4 ovarian = tested on: OVCAR-4 ovarian
SK-MEL-28 melanoma = tested on: SK-MEL-28 melanoma
A549 NSCLC = tested on: A549 NSCLC
TK-10 renal = tested on: TK-10 renal
UACC-62 melanoma = tested on: UACC-62 melanoma
SNB-78 CNS = tested on: SNB-78 CNS
UO-31 renal = tested on: UO-31 renal
A498 renal = tested on: A498 renal
SK-MEL-5 melanoma = tested on: SK-MEL-5 melanoma
XF 498 CNS = tested on: XF 498 CNS
RPMI-8226 leukemia = tested on: RPMI-8226 leukemia
SK-OV-3 ovarian = tested on: SK-OV-3 ovarian
KM12 colon = tested on: KM12 colon
HT29 colon = tested on: HT29 colon
HCC-2998 colon = tested on: HCC-2998 colon
HCT-15 colon = tested on: HCT-15 colon
NCI-H522 lung = tested on: NCI-H522 lung
SN12C renal = tested on: SN12C renal
M14 melanoma = tested on: M14 melanoma
LXFL 529 NSCLC = tested on: LXFL 529 NSCLC
ACHN renal = tested on: ACHN renal
U251 CNS = tested on: U251 CNS
SNB-19 CNS = tested on: SNB-19 CNS
MOLT-4 leukemia = tested on: MOLT-4 leukemia
NCI-H23 lung = tested on: NCI-H23 lung
CCRF-CEM leukemia = tested on: CCRF-CEM leukemia
EKVX NSCLC = tested on: EKVX NSCLC
SF-295 CNS = tested on: SF-295 CNS
HOP-62 NSCLC = tested on: HOP-62 NSCLC
COLO 205 colon = tested on: COLO 205 colon
HL-60(TB) leukemia = tested on: HL-60(TB) leukemia
RXF 393 renal = tested on: RXF 393 renal
786-0 renal = tested on: 786-0 renal
MALME-3M melanoma = tested on: MALME-3M melanoma
SK-MEL-2 melanoma = tested on: SK-MEL-2 melanoma
SR leukemia = tested on: SR leukemia
SF-539 CNS = tested on: SF-539 CNS
DMS 273 small cell lung = tested on: DMS 273 small cell lung
HCT-116 colon = tested on: HCT-116 colon
LOX IMVI melanoma = tested on: LOX IMVI melanoma
NCI-H226 lung = tested on: NCI-H226 lung

COc1ccc(/C=C/C(=O)C(C)(C)C)cc1OC
TGI (DMS 114 small cell lung): > 100 µM
TGI (CAKI-1 renal): > 100 µM
TGI (K-562 leukemia): > 100 µM
TGI (SNB-75 CNS): > 100 µM
TGI (UACC-257 melanoma): > 100 µM
TGI (OVCAR-5 ovarian): > 100 µM
TGI (OVCAR-8 ovarian): > 100 µM
TGI (DLD-1 colon): > 100 µM
TGI (NCI-H460 lung): > 100 µM
TGI (OVCAR-3 ovarian): > 100 µM
TGI (KM20L2 colon): > 100 µM
TGI (IGROV1 ovarian): > 100 µM
TGI (SW-620 colon): > 100 µM
TGI (M19-MEL melanoma): > 100 µM
TGI (SF-268 CNS): > 100 µM
TGI (OVCAR-4 ovarian): > 100 µM
TGI (SK-MEL-28 melanoma): > 100 µM
TGI (A549 NSCLC): > 100 µM
TGI (TK-10 renal): > 100 µM
TGI (UACC-62 melanoma): > 100 µM
TGI (SNB-78 CNS): > 100 µM
TGI (UO-31 renal): > 100 µM
TGI (A498 renal): > 100 µM
TGI (SK-MEL-5 melanoma): > 100 µM
TGI (XF 498 CNS): > 100 µM
TGI (RPMI-8226 leukemia): > 100 µM
TGI (SK-OV-3 ovarian): > 100 µM
TGI (KM12 colon): > 100 µM
TGI (HT29 colon): > 100 µM
TGI (HCC-2998 colon): > 100 µM
TGI (HCT-15 colon): > 100 µM
TGI (NCI-H522 lung): > 100 µM
TGI (SN12C renal): > 100 µM
TGI (M14 melanoma): > 100 µM
TGI (LXFL 529 NSCLC): > 100 µM
TGI (ACHN renal): > 100 µM
TGI (U251 CNS): > 100 µM
TGI (SNB-19 CNS): > 100 µM
TGI (MOLT-4 leukemia): > 100 µM
TGI (NCI-H23 lung): > 100 µM
TGI (CCRF-CEM leukemia): > 100 µM
TGI (EKVX NSCLC): > 100 µM
TGI (SF-295 CNS): > 100 µM
TGI (HOP-62 NSCLC): > 100 µM
TGI (COLO 205 colon): > 100 µM

N#Cc1c2c(c(Cl)n3c1nc1ccccc13)CCCC2
TGI (DMS 114 small cell lung): 5.12 µM
TGI (CAKI-1 renal): 11.8 µM
TGI (K-562 leukemia): 7.15 µM
TGI (SNB-75 CNS): 30.9 µM
TGI (UACC-257 melanoma): 3.91 µM
TGI (OVCAR-5 ovarian): 32.4 µM
TGI (OVCAR-8 ovarian): 5.89 µM
TGI (DLD-1 colon): 24.2 µM
TGI (NCI-H460 lung): 4.02 µM
TGI (OVCAR-3 ovarian): 20.1 µM
TGI (HL-60(TB) leukemia): 5.25 µM
TGI (KM20L2 colon): 7.48 µM
TGI (IGROV1 ovarian): 8.28 µM
TGI (SW-620 colon): 4.43 µM
TGI (M19-MEL melanoma): 12.2 µM
TGI (SF-268 CNS): 8.83 µM
TGI (OVCAR-4 ovarian): 16.7 µM
TGI (SK-MEL-28 melanoma): 4.43 µM
TGI (RXF 393 renal): 0.904 µM
TGI (A549 NSCLC): 17.2 µM
TGI (TK-10 renal): 6.68 µM
TGI (SNB-78 CNS): 15.9 µM
TGI (UO-31 renal): 12.8 µM
TGI (A498 renal): 23.8 µM
TGI (786-0 renal): 3.33 µM
TGI (SK-MEL-5 melanoma): 3.26 µM
TGI (XF 498 CNS): 5.29 µM
TGI (MALME-3M melanoma): 27 µM
TGI (RPMI-8226 leukemia): 7.52 µM
TGI (SK-MEL-2 melanoma): 8.34 µM
TGI (SK-OV-3 ovarian): 10.2 µM
TGI (SR leukemia): > 100 µM
TGI (HT29 colon): 2.86 µM
TGI (HCC-2998 colon): 30.8 µM
TGI (HCT-15 colon): 10.6 µM
TGI (SF-539 CNS): 14 µM
TGI (SN12C renal): 4.74 µM
TGI (DMS 273 small cell lung): 3.74 µM
TGI (M14 melanoma): 11.3 µM
TGI (HCT-116 colon): 5.43 µM
TGI (ACHN renal): 12.4 µM
TGI (U251 CNS): 11.8 µM
TGI (SNB-19 CNS): 14.7 µM
TGI (MOLT-4 leukemia): 24.8 µM
TGI (LOX IMVI melanoma): 4.57 µM
TGI (NCI-H23 lung): 17 µM
TGI (EKVX NSCLC): 32.1 µM
TGI (SF-295 CNS): 16.6 µM
TGI (COLO 205 colon): 17.7 µM

CCOP(=S)(OCC)Oc1ccc2c(c1)OC(=O)C1(Cl)C2(C)C2(Cl)C(=O)Oc3cc(OP(=S)(OCC)OCC)ccc3C12C (configuration not stated)
TGI (DMS 114 small cell lung): 30 µM
TGI (CAKI-1 renal): 41.8 µM
TGI (K-562 leukemia): 77.3 µM
TGI (SNB-75 CNS): 34.3 µM
TGI (UACC-257 melanoma): 37.2 µM
TGI (OVCAR-5 ovarian): 33.3 µM
TGI (OVCAR-8 ovarian): 37.2 µM
TGI (DLD-1 colon): 33.3 µM
TGI (NCI-H460 lung): 36.6 µM
TGI (OVCAR-3 ovarian): 28.1 µM
TGI (HL-60(TB) leukemia): 34.4 µM
TGI (KM20L2 colon): 33.4 µM
TGI (IGROV1 ovarian): 38.7 µM
TGI (SW-620 colon): 33.3 µM
TGI (M19-MEL melanoma): 33.9 µM
TGI (SF-268 CNS): 21 µM
TGI (OVCAR-4 ovarian): 24.4 µM
TGI (SK-MEL-28 melanoma): 31.1 µM
TGI (RXF 393 renal): 25.8 µM
TGI (A549 NSCLC): 74.1 µM
TGI (TK-10 renal): 61.8 µM
TGI (UACC-62 melanoma): 26.6 µM
TGI (SNB-78 CNS): 49.4 µM
TGI (UO-31 renal): 33.7 µM
TGI (A498 renal): 63.7 µM
TGI (786-0 renal): 44.9 µM
TGI (SK-MEL-5 melanoma): 31.7 µM
TGI (XF 498 CNS): 36.2 µM
TGI (MALME-3M melanoma): 43.8 µM
TGI (RPMI-8226 leukemia): 52.8 µM
TGI (SK-MEL-2 melanoma): 42.3 µM
TGI (NCI-H226 lung): 31.1 µM
TGI (KM12 colon): 30.7 µM
TGI (HT29 colon): 29.9 µM
TGI (HCC-2998 colon): 33.9 µM
TGI (HCT-15 colon): 41.6 µM
TGI (SF-539 CNS): 24.7 µM
TGI (NCI-H522 lung): 22.3 µM
TGI (SN12C renal): 39.3 µM
TGI (DMS 273 small cell lung): 38.1 µM
TGI (M14 melanoma): 33.7 µM
TGI (LXFL 529 NSCLC): 21.1 µM
TGI (HCT-116 colon): 25 µM
TGI (ACHN renal): 43.4 µM
TGI (U251 CNS): 20 µM
TGI (SNB-19 CNS): 15.6 µM
TGI (MOLT-4 leukemia): 66.6 µM
TGI (LOX IMVI melanoma): 37.5 µM
TGI (CCRF-CEM leukemia): 41.1 µM
TGI (EKVX NSCLC): 55.5 µM
TGI (SF-295 CNS): 29.7 µM
TGI (HOP-62 NSCLC): 40.3 µM
TGI (COLO 205 colon): 34.3 µM
